We go through one substance from patent publication US7078565B2, “Benzamide derivatives as antagonists of orexin receptors” (SmithKline Beecham plc, priority 2001, dated 2006).

Assay [1] has as its system rat. The experiment in a line: Rat sleep/EEG studies. The format is in vivo. The note with it: central administration at the onset of the normal sleep period; at the expense of paradoxical sleep and slow wave sleep 2. An excerpt: Therefore antagonists of its receptors may be useful in the treatment of sleep disorders including insomnia.
The test system of assay [2] is freely-feeding rats. The note with it: central administration, 4 hour time period; cited from earlier work.

Take “orexin-A: peptide ligand for the orexin-1 receptor, an agonist of the orexin receptors; sequence given in b81 (QPLPDCCRQKTCSCRLYELLHGAGNHAAGILTL; not fully specified; Orexin-A; UniProt O43612 34-66, looked up)”: the arousal result in assay [1] is “dose-related increase in arousal”. Also, the “increase in food intake over control rats receiving vehicle” value in assay [2] is on record as “approximately four-fold”.
